Patent US8273762B2, “Hexahydro-pyrrolo-isoquinoline compounds” (Janssen Pharmaceutica NV, priority 2005, dated 2012)

Legend:
Rat SERT = target: T1, Rat SERT (Rattus norvegicus, UniProt P31652); assay: Rat brain SERT binding ([3H]-Citalopram displacement); settings: rat brain membranes, 0.6 nM [3H]-Citalopram; read-out: Rat SERT Ki
T1 construct: A rat brain without cerebellum (Zivic Laboratories, Inc.—Pittsburgh, Pa.) was homogenized; tissue Zivic Laboratories, Inc; host or cells: rat brain without cerebellum, membranes

[1] = target: T2, cloned human H3 receptor, stably expressed in SK-N-MC cells (Homo sapiens, UniProt Q9Y5N1); assay: H3 receptor binding (N-[3H]-α-methylhistamine displacement); settings: SK-N-MC membranes, 0.8 nM N-[3H]-α-methylhistamine
T2 construct: expressed in transfected cells

[2] = target: T3, human H3 receptor (SK-N-MC cells) (Homo sapiens, UniProt Q9Y5N1); assay: Cyclic AMP accumulation (β-galactosidase reporter, Schild analysis vs histamine); format: cell-based; settings: read-out: H3 pA2 (converted)
T3 construct: expressed in transfected cells; host or cells: SK-N-MC sublines with CRE-beta-galactosidase reporter

[3] = target: T4, human SERT (HEK293 membranes) (Homo sapiens, UniProt P31645); assay: Human SERT binding (3H-citalopram displacement)
T4 construct: purchased Perkin-Elmer; host or cells: HEK293 membranes
T4 sequence (P31645 whole entry): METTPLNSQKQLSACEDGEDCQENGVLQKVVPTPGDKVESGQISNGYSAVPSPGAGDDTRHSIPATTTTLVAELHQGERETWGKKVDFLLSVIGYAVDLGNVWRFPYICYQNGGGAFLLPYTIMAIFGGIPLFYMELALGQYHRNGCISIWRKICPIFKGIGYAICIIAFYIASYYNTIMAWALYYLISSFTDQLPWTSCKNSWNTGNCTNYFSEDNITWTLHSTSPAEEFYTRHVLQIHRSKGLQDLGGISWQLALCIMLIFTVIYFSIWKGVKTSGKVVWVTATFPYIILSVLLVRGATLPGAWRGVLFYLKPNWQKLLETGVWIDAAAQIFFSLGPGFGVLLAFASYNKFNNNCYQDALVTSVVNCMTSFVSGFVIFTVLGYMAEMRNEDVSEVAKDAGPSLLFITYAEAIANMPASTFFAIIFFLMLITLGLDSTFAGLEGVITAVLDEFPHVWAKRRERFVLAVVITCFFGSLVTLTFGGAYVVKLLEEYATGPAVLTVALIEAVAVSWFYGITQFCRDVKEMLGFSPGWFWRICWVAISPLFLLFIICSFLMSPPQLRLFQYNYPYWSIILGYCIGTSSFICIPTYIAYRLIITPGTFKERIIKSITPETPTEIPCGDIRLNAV

T1 sequence (P31652 whole entry): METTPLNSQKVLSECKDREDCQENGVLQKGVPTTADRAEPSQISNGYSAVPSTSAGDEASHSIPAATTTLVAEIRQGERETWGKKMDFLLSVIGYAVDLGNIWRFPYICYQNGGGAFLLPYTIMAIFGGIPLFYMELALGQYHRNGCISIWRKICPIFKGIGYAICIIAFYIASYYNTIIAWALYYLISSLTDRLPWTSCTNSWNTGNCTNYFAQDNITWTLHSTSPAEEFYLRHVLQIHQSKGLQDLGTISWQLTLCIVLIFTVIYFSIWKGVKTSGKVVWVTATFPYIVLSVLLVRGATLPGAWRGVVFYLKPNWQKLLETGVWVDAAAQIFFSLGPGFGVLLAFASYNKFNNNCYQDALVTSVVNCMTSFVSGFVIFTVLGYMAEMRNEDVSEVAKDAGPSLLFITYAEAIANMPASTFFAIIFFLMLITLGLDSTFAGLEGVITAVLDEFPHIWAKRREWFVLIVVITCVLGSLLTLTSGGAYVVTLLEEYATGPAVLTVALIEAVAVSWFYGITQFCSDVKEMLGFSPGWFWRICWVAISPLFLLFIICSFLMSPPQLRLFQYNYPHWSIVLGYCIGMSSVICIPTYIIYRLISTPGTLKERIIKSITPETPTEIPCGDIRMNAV
T3 sequence (Q9Y5N1 whole entry): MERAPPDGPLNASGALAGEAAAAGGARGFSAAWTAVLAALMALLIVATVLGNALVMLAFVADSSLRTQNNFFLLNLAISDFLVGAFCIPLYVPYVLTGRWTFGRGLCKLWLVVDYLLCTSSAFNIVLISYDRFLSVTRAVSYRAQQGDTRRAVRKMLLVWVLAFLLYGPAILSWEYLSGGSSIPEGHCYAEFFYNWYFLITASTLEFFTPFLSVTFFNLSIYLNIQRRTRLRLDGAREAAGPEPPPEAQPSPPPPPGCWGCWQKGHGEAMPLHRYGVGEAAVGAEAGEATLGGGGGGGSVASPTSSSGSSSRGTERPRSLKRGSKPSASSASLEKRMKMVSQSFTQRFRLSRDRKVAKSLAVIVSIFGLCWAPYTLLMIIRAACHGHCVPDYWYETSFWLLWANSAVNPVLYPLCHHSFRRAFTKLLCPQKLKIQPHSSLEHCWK
T2 sequence (Q9Y5N1 whole entry): as above

Row | SMILES | Ki (Rat SERT) [nM] | Ki [1] [nM] | Kb [2] [nM] | Ki [3] [nM]
1 | c1ccc([C@@H]2CN3CCC[C@H]3c3cccc(OCCCN4CCCCC4)c32)cc1 (relative stereo) [Example 1C, Trans-6-Phenyl-7-(3-piperidin-1-yl-propoxy)-1,2,3,5,6,10b-hexahydro-pyrrolo[2,1a]isoquinoline] | 4000 | 68 |  | 
2 | COc1ccc([C@H]2CN3CCC[C@H]3c3cc(OCCCN4CCOCC4)ccc32)cc1 [Example 91, (1S,6R)-6-(4-Methoxy-phenyl)-9-(3-morpholin-4-yl-propoxy)-1,2,3,5,6,10b-hexahydro-pyrrolo[2,1-a]isoquinoline] | 60 |  | 3.16 | 
3 | COc1cccc([C@@H]2CN3CCC[C@H]3c3cc(OCCCN4CCCCC4)ccc32)c1 (relative stereo) [Example 10B, Trans-6-(3-Methoxy-phenyl)-9-(3-piperidin-1-yl-propoxy)-1,2,3,5,6,10b-hexahydro-pyrrolo[2,1-a]isoquinoline] | 37 | 2 | 0.251 | 
4 | COc1ccc([C@H]2CN3CCC[C@H]3c3cc(OCCCN4CCCCC4)ccc32)cc1OC (relative stereo) [Example 18] |  | 0.9 | 0.501 | 13
5 | C#Cc1ccc([C@H]2CN3CCC[C@H]3c3cc(OCCCN4CCCCC4)ccc32)cc1 (relative stereo) [Example 37] |  | 4 | 1.58 | 0.8
6 | Ic1cccc([C@H]2CN3CCC[C@H]3c3cc(OCCCN4CCCCC4)ccc32)c1 (relative stereo) [Example 32] |  | 1 | 0.316 | 11
7 | Cc1ccc([C@H]2CN3CCC[C@H]3c3cc(OCCCN4CCCCC4)ccc32)cc1 (relative stereo) [Example 5A, Cis-9-(3-Piperidine-1-yl-propoxy)-6-p-tolyl-1,2,3,5,6,10b-hexahydro-pyrrolo[2,1-a]isoquinoline] |  | 2 | 2.51 | 4
8 | Oc1cccc([C@H]2CN3CCC[C@H]3c3cc(OCCCN4CCCCC4)ccc32)c1 (relative stereo) [Example 15] |  | 0.7 | 0.126 | 3
9 | CSc1ccc([C@@H]2CN3CCC[C@@H]3c3cc(OCCCN4CCOCC4)ccc32)cc1 [Example 89, (1R,6S)-6-(4-Methylsulfanyl-phenyl)-9-(3-morpholin-4-yl-propoxy)-1,2,3,5,6,10b-hexahydro-pyrrolo[2,1-a]isoquinoline] | 3 | 16 |  | 
10 | COc1cc([C@H]2CN3CCC[C@H]3c3cc(OCCCN4CCCCC4)ccc32)cc(OC)c1OC (relative stereo) [Example 22] |  | 0.8 | 0.631 | 220
11 | COc1ccc(OC)c([C@H]2CN3CCC[C@H]3c3cc(OCCCN4CCCCC4)ccc32)c1 (relative stereo) [Example 20] |  | 1 | 1 | 43
12 | O=[N+]([O-])c1ccc([C@H]2CN3CCC[C@H]3c3cc(OCCCN4CCCCC4)ccc32)cc1 (relative stereo) [Example 2A, Cis-6-(4-Nitro-phenyl)-9-(3-piperidin-1-yl-propoxy)-1,2,3,5,6,10b-hexahydro-pyrrolo[2,1-a]isoquinoline] |  | 1 | 0.398 | 6
13 | O=[N+]([O-])c1cccc([C@@H]2CN3CCC[C@H]3c3cccc(OCCCN4CCCCC4)c32)c1 (relative stereo) [Example 4D, Trans-6-(3-Nitro-phenyl)-7-(3-piperidin-1-yl-propoxy)-1,2,3,5,6,10b-hexahydro-pyrrolo[2,1-a]isoquinoline] | 154 | 1 |  | 
14 | C#Cc1cccc([C@H]2CN3CCC[C@H]3c3cc(OCCCN4CCCCC4)ccc32)c1 (relative stereo) [Example 34] |  | 2 | 1 | 3
15 | O=[N+]([O-])c1cccc([C@H]2CN3CCC[C@H]3c3cc(OCCCN4CCCCC4)ccc32)c1 (relative stereo) [Example 4A, Cis-6-(3-Nitro-phenyl)-9-(3-piperidin-1-yl-propoxy)-1,2,3,5,6,10b-hexahydro-pyrrolo[2,1-a]isoquinoline] |  | 1 | 0.126 | 4
16 | Nc1ccc([C@H]2CN3CCC[C@H]3c3cc(OCCCN4CCCCC4)ccc32)cc1 (relative stereo) [Example 3] |  | 0.5 | 0.0794 | 8
17 | CSc1ccc([C@H]2CN3CCC[C@H]3c3cc(OCCCN4CCOCC4)ccc32)cc1 [Example 90, (1S,6R)-6-(4-Methylsulfanyl-phenyl)-9-(3-morpholin-4-yl-propoxy)-1,2,3,5,6,10b-hexahydro-pyrrolo[2,1-a]isoquinoline] | 24 | 10 |  | 
18 | COc1cc(OC)cc([C@H]2CN3CCC[C@H]3c3cc(OCCCN4CCCCC4)ccc32)c1 (relative stereo) [Example 21] |  | 1 | 0.794 | 5

Results, then the compound that gave them:

Row | Ki (Rat SERT) [nM] | Ki [1] [nM] | Kb [2] [nM] | Ki [3] [nM] | SMILES
19 | 6000 | 1000 |  |  | Oc1ccc([C@@H]2CN3CCC[C@H]3c3cccc(OCCCN4CCCCC4)c32)cc1 (relative stereo) [Example 9B]
20 | 2000 | 82 |  |  | COc1cccc([C@@H]2CN3CCC[C@H]3c3cccc(OCCCN4CCCCC4)c32)c1 (relative stereo) [Example 10C, Trans-6-(3-Methoxy-phenyl)-7-(3-piperidin-1-yl-propoxy)-1,2,3,5,6,10b-hexahydro-pyrrolo[2,1-a]isoquinoline]
21 |  | 3 | 1.58 | 2000 | CSc1ccc([C@@H]2CN3CCC[C@H]3c3ccc(C#CCCN4CCCCC4)cc32)cc1 (relative stereo) [Example 97A, Cis-6-(4-methylsulfanyl-phenyl)-8-(4-piperidin-1-yl-but-1-ynyl)-1,2,3,5,6,10b-hexahydro-pyrrolo[2,1-a]isoquinoline]
22 | 25 |  |  |  | FC(F)(F)c1ccc([C@@H]2CN3CCC[C@@H]3c3cc(OCCCN4CCCCC4)ccc32)cc1 (relative stereo) [Example 7B, Trans-9-(3-Piperidin-1-yl-propoxy)-6-(4-trifluoromethyl-phenyl)-1,2,3,5,6,10b-hexahydro-pyrrolo[2,1-a]isoquinoline]
23 | 91 | 1 | 0.501 |  | Clc1cccc([C@H]2CN3CCC[C@H]3c3cc(OCCCN4CCCCC4)ccc32)c1 (relative stereo) [Example 11B, Trans-6-(3-Chloro-phenyl)-9-(3-piperidin-1-yl-propoxy)-1,2,3,5,6,10b-hexahydro-pyrrolo[2,1-a]isoquinoline]
24 |  | 1 | 6.31 | 9 | COc1ccc([C@@H]2CN3CCC[C@H]3c3cc(C#CCCN4CCCCC4)ccc32)cc1 (relative stereo) [Example 96A, Cis-6-(4-methoxy-phenyl)-9-(4-piperidin-1-yl-but-1-ynyl)-1,2,3,5,6,10b-hexahydro-pyrrolo[2,1-a]isoquinoline]
25 | 69 | 36 |  |  | CSc1ccc(C2CN3CCCC3c3cccc(OCCCN4CCCCC4)c32)cc1 (stereo not shown) [Example 39C, 6-(4-Methylsulfanyl-phenyl)-7-(3-piperidin-1-yl-propoxy)-1,2,3,5,6,10b-hexahydro-pyrrolo[2,1-a]isoquinoline]
26 |  | 5 | 6.31 | 12 | FC(F)(F)c1ccc([C@H]2CN3CCC[C@H]3c3cc(OCCCN4CCCCC4)ccc32)cc1 (relative stereo) [Example 7A, Cis-9-(3-Piperidin-1-yl-propoxy)-6-(4-trifluoromethyl-phenyl)-1,2,3,5,6,10b-hexahydro-pyrrolo[2,1-a]isoquinoline]
27 | 27 |  |  |  | FC(F)(F)c1ccc([C@@H]2CN3CCC[C@H]3c3cc(OCCCN4CCCCC4)ccc32)cc1 (relative stereo) [Example 7A, Cis-9-(3-Piperidin-1-yl-propoxy)-6-(4-trifluoromethyl-phenyl)-1,2,3,5,6,10b-hexahydro-pyrrolo[2,1-a]isoquinoline]
28 |  | 2 | 1.26 | 8 | Clc1ccccc1[C@@H]1CN2CCC[C@H]2c2cc(OCCCN3CCCCC3)ccc21 (relative stereo) [Example 12A, Cis-6-(2-Chloro-phenyl)-9-(3-piperidin-1-yl-propoxy)-1,2,3,5,6,10b-hexahydro-pyrrolo[2,1-a]isoquinoline]
29 | 630 | 31 |  |  | FC(F)(F)c1ccc([C@@H]2CN3CCC[C@H]3c3cccc(OCCCN4CCCCC4)c32)cc1 (relative stereo) [Example 7C]
30 |  | 3 | 6.31 | 4 | Clc1ccc([C@@H]2CN3CCC[C@H]3c3cc(OCCCN4CCCCC4)ccc32)cc1Cl (relative stereo) [Example 6A, Cis-6-(3,4-Dichloro-phenyl)-9-(3-piperidin-1-yl-propoxy)-1,2,3,5,6,10b-hexahydro-pyrrolo[2,1-a]isoquinoline]
31 |  | 4 | 3.98 | 7 | Ic1ccc([C@@H]2CN3CCC[C@H]3c3cc(OCCCN4CCCCC4)ccc32)cc1 (relative stereo) [Example 35A, Cis-6-(4-Iodo-phenyl)-9-(3-piperidin-1-yl-propoxy)-1,2,3,5,6,10b-hexahydro-pyrrolo[2,1-a]isoquinoline]
32 | 1000 | 136 |  |  | Clc1cccc([C@@H]2CN3CCC[C@H]3c3cccc(OCCCN4CCCCC4)c32)c1 (relative stereo) [Example 11C]
33 |  | 2 | 1 | 3 | Fc1ccc([C@@H]2CN3CCC[C@H]3c3cc(OCCCN4CCCCC4)ccc32)cc1 (relative stereo) [Example 14A, Cis-6-(4-Fluoro-phenyl)-9-(3-piperidin-1-yl-propoxy)-1,2,3,5,6,10b-hexahydro-pyrrolo[2,1-a]isoquinoline]
